The source of these data is patent US12018059B2, “Human amylin analog polypeptides and methods of use” (Intarcia Therapeutics, Inc., priority 2018, dated 2024).

SMILES strings stand for the structures. Starred links: 1 amine or outer side, 2 acyl side, 3 side chain; linkers in the order of their positions; H or OH if unused. Positions of bridges follow the written chain, without caps; N, C: chain ends. Non-standard residues stand in square brackets, D forms with d. Residues, ends and D or L forms follow the SMILES beside them. Groups on a side chain read outwards from the residue. *: point of attachment. C20 diacid = O=C(O)CCCCCCCCCCCCCCCCCCC(=O)*; C18 diacid = O=C(O)CCCCCCCCCCCCCCCCC(=O)*; γGlu = O=C(O)[C@H](CCC(=O)[*:2])N[*:1]; Palmitoyl = CCCCCCCCCCCCCCCC(=O)*; AEEA = NCCOCCOCC(=O)O

This data set is described as follows: in vivo. Further details: species or system Sprague-Dawley rats. Particulars: rat, iv, 0.033 mg/kg. In outline:
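Male Sprague-Dawley rats, non-fasted (n=3), given peptide in saline as 1-h IV or SC infusion at 0.033 mg/kg, or SC bolus at 0.3 mg/kg; jugular blood to 48 h into K2EDTA plus protease inhibitors. Plasma extracted by precipitation or WCX solid-phase extraction, quantified by UPLC-MS/MS against standards in matching rat plasma.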
As to `CC[C@H](C)[C@H](NC(=O)[C@@H]1CCCN1C(=O)CNC(=O)[C@H](Cc1ccccc1)NC(=O)[C@H](CC(N)=O)NC(=O)[C@H](CC(N)=O)NC(=O)[C@H](CO)NC(=O)[C@H](CO)NC(=O)[C@H](CCCCN)NC(=O)[C@H](Cc1c[nH]cn1)NC(=O)[C@H](CC(C)C)NC(=O)[C@@H](CCCCNC(=O)CC[C@H](NC(=O)CC[C@H](NC(=O)COCCOCCNC(=O)COCCOCCNC(=O)CC[C@H](NC(=O)CCCCCCCCCCCCCCCCCCC(=O)O)C(=O)O)C(=O)O)C(=O)O)NC(=O)[C@H](CC(N)=O)NC(=O)[C@H](C)NC(=O)[C@H](CC(C)C)NC(=O)[C@H](CCCNC(=N)N)NC(=O)[C@H](CCC(N)=O)NC(=O)[C@@H](NC(=O)[C@H](C)NC(=O)[C@@H]1CSSC[C@H](NC(=O)[C@@H](N)CO)C(=O)N[C@@H](CC(N)=O)C(=O)N[C@@H]([C@@H](C)O)C(=O)N[C@@H](CO)C(=O)N[C@@H]([C@@H](C)O)C(=O)N1)[C@@H](C)O)C(=O)N[C@@H](CC(C)C)C(=O)N1CCC[C@H]1C(=O)N1CCC[C@H]1C(=O)N[C@H](C(=O)N[C@@H](CCCCN)C(=O)N[C@H](C(=O)NCC(=O)N[C@@H](CO)C(=O)N[C@@H](CCC(=O)O)C(=O)N[C@H](C(=O)N[C@@H](Cc1ccc(O)cc1)C(N)=O)[C@@H](C)O)C(C)C)[C@@H](C)O` [Compound A101] (H-SCNTSTCATQRLAN[dK]([γGlu-γGlu-AEEA-AEEA-γGlu-C20 diacid])LHKSSNNFGPILPPTKVGSETY-NH2; disulfide 2-7; N-terminus assumed), the Vd is 0.149 L/kg, the clearance amounted to 0.00405 L/h/kg and the half-life is 28.4 h.

With `CC[C@H](C)[C@H](NC(=O)[C@@H]1CCCN1C(=O)CNC(=O)[C@H](Cc1ccccc1)NC(=O)[C@H](CC(N)=O)NC(=O)[C@H](CC(N)=O)NC(=O)[C@H](CO)NC(=O)[C@H](CO)NC(=O)[C@H](CCCCN)NC(=O)[C@H](Cc1c[nH]cn1)NC(=O)[C@@H](CCCCNC(=O)CC[C@H](NC(=O)CC[C@H](NC(=O)CC[C@H](NC(=O)CCCCCCCCCCCCCCCCC(=O)O)C(=O)O)C(=O)O)C(=O)O)NC(=O)[C@H](CCC(=O)O)NC(=O)[C@H](CC(N)=O)NC(=O)[C@H](C)NC(=O)[C@H](CC(C)C)NC(=O)[C@H](CCCNC(=N)N)NC(=O)[C@H](CCC(N)=O)NC(=O)[C@@H](NC(=O)[C@H](C)NC(=O)[C@@H]1CSSC[C@H](NC(=O)[C@@H](N)CO)C(=O)N[C@@H](CC(N)=O)C(=O)N[C@@H]([C@@H](C)O)C(=O)N[C@@H](CO)C(=O)N[C@@H]([C@@H](C)O)C(=O)N1)[C@@H](C)O)C(=O)N[C@@H](CC(C)C)C(=O)N1CCC[C@H]1C(=O)N1CCC[C@H]1C(=O)N[C@H](C(=O)N[C@@H](CCCCN)C(=O)N[C@H](C(=O)NCC(=O)N[C@@H](CO)C(=O)N[C@@H](CCC(=O)O)C(=O)N[C@H](C(=O)N[C@@H](Cc1ccc(O)cc1)C(N)=O)[C@@H](C)O)C(C)C)[C@@H](C)O` [Compound A104] (H-SCNTSTCATQRLANE[dK]([γGlu-γGlu-γGlu-C18 diacid])HKSSNNFGPILPPTKVGSETY-NH2; disulfide 2-7), the Vd was determined as 0.137 L/kg, the clearance is 0.00648 L/h/kg and the half-life is 16.6 h.

In the case of `CCCCCCCCCCCCCCCC(=O)N[C@@H](CCC(=O)NCCCC[C@H](NC(=O)[C@@H]1CSSC[C@H](NC(=O)[C@@H](N)CO)C(=O)N[C@@H](CC(N)=O)C(=O)N[C@@H]([C@@H](C)O)C(=O)N[C@@H](CO)C(=O)N[C@@H]([C@@H](C)O)C(=O)N1)C(=O)N[C@H](C(=O)N[C@@H](CCC(N)=O)C(=O)N[C@@H](CCCNC(=N)N)C(=O)N[C@@H](CC(C)C)C(=O)N[C@@H](C)C(=O)N[C@@H](CC(N)=O)C(=O)N[C@@H](CCC(=O)O)C(=O)N[C@@H](CC(C)C)C(=O)N[C@@H](Cc1c[nH]cn1)C(=O)N[C@@H](CCCCN)C(=O)N[C@@H](CO)C(=O)N[C@@H](CO)C(=O)N[C@@H](CC(N)=O)C(=O)N[C@@H](CC(N)=O)C(=O)N[C@@H](Cc1ccccc1)C(=O)NCC(=O)N1CCC[C@H]1C(=O)N[C@H](C(=O)N[C@@H](CC(C)C)C(=O)N1CCC[C@H]1C(=O)N1CCC[C@H]1C(=O)N[C@H](C(=O)N[C@@H](CCCCN)C(=O)N[C@H](C(=O)NCC(=O)N[C@@H](CO)C(=O)N[C@@H](CCC(=O)O)C(=O)N[C@H](C(=O)N[C@@H](Cc1ccc(O)cc1)C(N)=O)[C@@H](C)O)C(C)C)[C@@H](C)O)[C@@H](C)CC)[C@@H](C)O)C(=O)O` [Compound A108] (H-SCNTSTCK([γGlu-Palmitoyl])TQRLANELHKSSNNFGPILPPTKVGSETY-NH2; disulfide 2-7), the Vd is 0.396 L/kg, the clearance was 0.387 L/h/kg and the half-life is 1.01 h.

`CC[C@H](C)[C@H](NC(=O)[C@@H]1CCCN1C(=O)CNC(=O)[C@H](Cc1ccccc1)NC(=O)[C@H](CC(N)=O)NC(=O)[C@H](CC(N)=O)NC(=O)[C@H](CO)NC(=O)[C@H](CO)NC(=O)[C@H](CCCCN)NC(=O)[C@H](CCC(N)=O)NC(=O)[C@H](CC(C)C)NC(=O)[C@H](Cc1ccccc1)NC(=O)[C@H](CC(N)=O)NC(=O)[C@H](C)NC(=O)[C@H](CC(C)C)NC(=O)[C@H](CCCNC(=N)N)NC(=O)[C@H](CO)NC(=O)[C@@H](NC(=O)[C@H](C)NC(=O)[C@@H]1CSSC[C@H](NC(=O)[C@@H](N)CCCCNC(=O)CC[C@H](NC(=O)CCCCCCCCCCCCCCCCC(=O)O)C(=O)O)C(=O)N[C@@H](CC(N)=O)C(=O)N[C@@H]([C@@H](C)O)C(=O)N[C@@H](CO)C(=O)N[C@@H]([C@@H](C)O)C(=O)N1)[C@@H](C)O)C(=O)N[C@@H](CC(C)C)C(=O)N1CCC[C@H]1C(=O)N1CCC[C@H]1C(=O)N[C@H](C(=O)N[C@@H](CCCCN)C(=O)N[C@H](C(=O)NCC(=O)N[C@@H](CO)C(=O)N[C@@H](CCC(=O)O)C(=O)N[C@H](C(=O)N[C@@H](Cc1ccc(O)cc1)C(N)=O)[C@@H](C)O)C(C)C)[C@@H](C)O` [Compound A109] (H-K([γGlu-C18 diacid])CNTSTCATSRLANFLQKSSNNFGPILPPTKVGSETY-NH2; disulfide 2-7; N-terminus assumed) showed a Vd of 0.154 L/kg, a clearance of 0.009 L/h/kg and a half-life of 16 h.

Consider `CCCCCCCCCCCCCCCC(=O)N[C@@H](CCC(=O)NCCCC[C@H](NC(=O)[C@H](CCCNC(=N)N)NC(=O)[C@H](CCC(N)=O)NC(=O)[C@@H](NC(=O)[C@H](C)NC(=O)[C@@H]1CSSC[C@H](NC(=O)[C@@H](N)CO)C(=O)N[C@@H](CC(N)=O)C(=O)N[C@@H]([C@@H](C)O)C(=O)N[C@@H](CO)C(=O)N[C@@H]([C@@H](C)O)C(=O)N1)[C@@H](C)O)C(=O)N[C@@H](C)C(=O)N[C@@H](CC(N)=O)C(=O)N[C@@H](CCC(=O)O)C(=O)N[C@@H](CC(C)C)C(=O)N[C@@H](Cc1c[nH]cn1)C(=O)N[C@@H](CCCCN)C(=O)N[C@@H](CO)C(=O)N[C@@H](CO)C(=O)N[C@@H](CC(N)=O)C(=O)N[C@@H](CC(N)=O)C(=O)N[C@@H](Cc1ccccc1)C(=O)NCC(=O)N1CCC[C@H]1C(=O)N[C@H](C(=O)N[C@@H](CC(C)C)C(=O)N1CCC[C@H]1C(=O)N1CCC[C@H]1C(=O)N[C@H](C(=O)N[C@@H](CCCCN)C(=O)N[C@H](C(=O)NCC(=O)N[C@@H](CO)C(=O)N[C@@H](CCC(=O)O)C(=O)N[C@H](C(=O)N[C@@H](Cc1ccc(O)cc1)C(N)=O)[C@@H](C)O)C(C)C)[C@@H](C)O)[C@@H](C)CC)C(=O)O` [Compound A121] (H-SCNTSTCATQRK([γGlu-Palmitoyl])ANELHKSSNNFGPILPPTKVGSETY-NH2; disulfide 2-7), for which the Vd came to 0.239 L/kg, the clearance turned out to be 0.127 L/h/kg and the half-life is 1.8 h.

Turning to `CCCCCCCCCCCCCCCC(=O)N[C@@H](CCC(=O)NCCOCCOCC(=O)NCCOCCOCC(=O)N[C@@H](CCC(=O)N[C@@H](CCC(=O)NCCCC[C@H](NC(=O)[C@H](CCC(=O)O)NC(=O)[C@H](CC(N)=O)NC(=O)[C@H](C)NC(=O)[C@H](CC(C)C)NC(=O)[C@H](CCCNC(=N)N)NC(=O)[C@H](CCC(N)=O)NC(=O)[C@@H](NC(=O)[C@H](C)NC(=O)[C@@H]1CSSC[C@H](NC(=O)[C@@H](N)CO)C(=O)N[C@@H](CC(N)=O)C(=O)N[C@@H]([C@@H](C)O)C(=O)N[C@@H](CO)C(=O)N[C@@H]([C@@H](C)O)C(=O)N1)[C@@H](C)O)C(=O)N[C@@H](Cc1c[nH]cn1)C(=O)N[C@@H](CCCCN)C(=O)N[C@@H](CO)C(=O)N[C@@H](CO)C(=O)N[C@@H](CC(N)=O)C(=O)N[C@@H](CC(N)=O)C(=O)N[C@@H](Cc1ccccc1)C(=O)NCC(=O)N1CCC[C@H]1C(=O)N[C@H](C(=O)N[C@@H](CC(C)C)C(=O)N1CCC[C@H]1C(=O)N1CCC[C@H]1C(=O)N[C@H](C(=O)N[C@@H](CCCCN)C(=O)N[C@H](C(=O)NCC(=O)N[C@@H](CO)C(=O)N[C@@H](CCC(=O)O)C(=O)N[C@H](C(=O)N[C@@H](Cc1ccc(O)cc1)C(N)=O)[C@@H](C)O)C(C)C)[C@@H](C)O)[C@@H](C)CC)C(=O)O)C(=O)O)C(=O)O` [Compound A122] (H-SCNTSTCATQRLANEK([γGlu-γGlu-AEEA-AEEA-γGlu-Palmitoyl])HKSSNNFGPILPPTKVGSETY-NH2; disulfide 2-7; N-terminus assumed), the Vd is 0.763 L/kg, the clearance came out at 0.117 L/h/kg and the half-life is 5.13 h.

The term Vd denotes a proportionality between amount in the body and measured concentration, not a real space. A low value points to confinement near the circulation. The clearance is the volume of plasma or blood freed of the substance per unit of time. A lower clearance goes with a low capacity for elimination. One may read the half-life as how long it takes for the measured level to halve. Low values mean rapid decline, high ones slow decline.
